Data taken from patent publication US20040110802A1, “Antibacterial benzoic acid derivatives” (priority 2002, published 2004).
≈ marks a conversion by molar mass, not a printed value.

Test system: SAUR 9218
Assay: MIC Test Method, standard agar dilution
Type: cell-based
Details: agar dilution, Mueller Hinton agar, incubated overnight at 35° C.; lowest concentration that inhibits visible growth; read-out: SAUR 9218 MIC
Experimental: The in vitro MiCs of test compounds were determined by a standard agar dilution method. A stock drug solution of each analog was prepared in the preferred solvent, usually DMSO:H2O (1:3). Serial 2-fold dilutions of each sample are made using 1.0 ml aliquots of sterile distil]ed water. To each 1.0 ml aliquot of drug was added 9 ml of molten Mueller Hinton agar medium. The drug-supplemented agar was mixed, poured into 15×100 mm petri dishes, and allowed to solidify and dry prior to inoculation.
Vials of each of the test organisms are maintained frozen in the vapor phase of a liquid nitrogen freezer. Test cultures are grown overnight at 35° C. on the medium appropriate for the organism. Colonies are harvested with a sterile swab, and cell suspensions are prepared in Trypticase Soy broth (TSB) to equal the turbidity of a 0.5 McFamland standard. A 1:20 dilution of each suspension was made in TSB. The plates containing the drug supplemented agar are inoculated with a 0.001 ml drop of the cell suspension using a Steers replicator, yielding approximately 10^4 to 10^5 cells per spot. The plates are incubated overnight at 35° C.
Following incubation the Minimum Inhibitory Concentration (MIC μg/ml), the lowest concentration of drug that inhibits visible growth of the organism, was read and recorded.

Compound	MIC
CN(c1ccc(Cl)cc1)S(=O)(=O)c1cc(C(=O)Nc2ccc(Br)cc2C(=O)O)c[n+]([O-])c1	8 mg/L (≈ 14.8 µM)
CCCCCCSc1cnc(C(=O)Nc2ccc(C#N)cc2C(=O)O)nc1	2 mg/L (≈ 5.2 µM)
CCCCN(CC)S(=O)(=O)c1cc(C(=O)Nc2ccc(C#N)cc2C(=O)O)sc1C	8 mg/L (≈ 17.8 µM)
CC(C)[Si](c1cc(C(=O)Nc2ccc(C#N)cc2C(=O)O)no1)(C(C)C)C(C)C	0.5 mg/L (≈ 1.21 µM)
N#Cc1ccc(NC(=O)c2cc3ccc(Cl)cc3[nH]2)c(C(=O)O)c1	2 mg/L (≈ 5.89 µM)
N#Cc1ccc(NC(=O)C2=NOC(c3ccccc3)C2)c(C(=O)O)c1 (stereo not drawn)	4 mg/L (≈ 11.9 µM)
Cc1coc2cnc(C(=O)Nc3ccc(C#N)cc3C(=O)O)cc12	16 mg/L (≈ 49.8 µM)
N#Cc1ccc(NC(=O)c2cc(-c3ccccc3Oc3ccccc3-c3ccccc3)on2)c(C(=O)O)c1	> 128 mg/L
Cn1nc(C(=O)Nc2ccc(Br)cc2C(=O)O)cc1OCc1ccccc1	16 mg/L (≈ 37.2 µM)
CCC(CC)C(=O)Nc1cccc2cc(C(=O)Nc3ccc(C#N)cc3C(=O)O)[nH]c12	1 mg/L (≈ 2.39 µM)
COCC(=O)Nc1ccc2onc(C(=O)Nc3ccc(C#N)cc3C(=O)O)c2c1	4 mg/L (≈ 10.1 µM)
N#Cc1ccc(NC(=O)c2cc3cccc(NC(=O)C4CCCCC4)c3[nH]2)c(C(=O)O)c1	2 mg/L (≈ 4.65 µM)
N#Cc1ccc(NC(=O)c2cc(-c3ccc(C(F)(F)F)cc3)on2)c(C(=O)O)c1	1 mg/L (≈ 2.49 µM)
O=C(Nc1ccc(Br)cc1C(=O)O)c1cc(-c2ccccc2)n[nH]1	> 128 mg/L
N#Cc1ccc(NC(=O)c2onc3ccccc23)c(C(=O)O)c1	1 mg/L (≈ 3.25 µM)
O=C(O)c1cc(Br)ccc1NC(=O)c1cc2ccccc2n1Cc1ccccc1	4 mg/L (≈ 8.9 µM)
N#Cc1ccc(NC(=O)c2ccc(N3CCOCC3)nc2)c(C(=O)O)c1	64 mg/L (≈ 182 µM)
N#Cc1ccc(NC(=O)c2noc3ccc(NC(=O)Cc4ccccc4)cc23)c(C(=O)O)c1	1 mg/L (≈ 2.27 µM)
N#Cc1cccc(-c2cnc(C(=O)Nc3ccc(C#N)cc3C(=O)O)o2)c1	2 mg/L (≈ 5.58 µM)
N#Cc1ccc(NC(=O)c2cncc(-c3ccc(C(F)(F)F)cc3)c2)c(C(=O)O)c1	> 128 mg/L
CC(C)(C)c1ccc(-c2cncc(C(=O)Nc3ccc(C#N)cc3C(=O)O)c2)cc1	32 mg/L (≈ 80.1 µM)
N#Cc1ccc(NC(=O)c2cc3cccc(N)c3[nH]2)c(C(=O)O)c1	1 mg/L (≈ 3.12 µM)
N#Cc1ccc(NC(=O)c2cc3cccc4c3n2CC/C4=N\Oc2ccccc2)c(C(=O)O)c1	2 mg/L (≈ 4.44 µM)
CS(=O)(=O)c1ncc(Cl)c(C(=O)Nc2ccc(Cl)cc2C(=O)O)n1	> 128 mg/L

Compound	MIC
CNC(=O)Nc1ccc2cc(C(=O)Nc3ccc(C#N)cc3C(=O)O)n(C)c2c1	2 mg/L (≈ 5.11 µM)
Cn1c(C(=O)Nc2ccc(C#N)cc2C(=O)O)cc2c(Br)ccc(NC(=O)Cc3ccccc3)c21	2 mg/L (≈ 3.76 µM)
Cn1c(C(=O)Nc2ccc(C#N)cc2C(=O)O)cc2c(Br)ccc(N)c21	1 mg/L (≈ 2.42 µM)
CC1=C(C(=O)Nc2ccc(Br)cc2C(=O)O)Cc2ccccc21	8 mg/L (≈ 21.5 µM)
N#Cc1ccc(NC(=O)c2ccc(SCCCCN)nc2)c(C(=O)O)c1.O=C(O)C(F)(F)F	2 mg/L
N#Cc1ccc(NC(=O)c2cnc(-c3ccccc3)cn2)c(C(=O)O)c1	64 mg/L (≈ 186 µM)
N#Cc1ccc(NC(=O)c2cc3cccc(NC(=O)c4ccc(Cl)nc4)c3[nH]2)c(C(=O)O)c1	1 mg/L (≈ 2.17 µM)
COc1ccc(-c2cnc(C(=O)Nc3ccc(C#N)cc3C(=O)O)cn2)cn1	> 128 mg/L
CN(c1ccc(Cl)cc1)S(=O)(=O)c1csc(C(=O)Nc2ccc(Br)cc2C(=O)O)c1	8 mg/L (≈ 15.1 µM)
CCC1CCCCN1S(=O)(=O)c1cc(C(=O)Nc2ccc(C#N)cc2C(=O)O)sc1C (stereo not drawn)	2 mg/L (≈ 4.33 µM)
CC(C)Cn1c(C(=O)Nc2ccc(Br)cc2C(=O)O)cc2ccccc21	2 mg/L (≈ 4.82 µM)
CN(c1ccc(Cl)cc1)S(=O)(=O)c1cc(C(=O)Nc2ccc(Br)cc2C(=O)O)cs1 [drawing 1603]	4 mg/L (≈ 7.55 µM)
O=C(Nc1ccc(Br)cc1C(=O)O)c1ccnc(SCc2ccccc2)c1	2 mg/L (≈ 4.51 µM)
CC(C)Cn1c(C(=O)Nc2ccc(C#N)cc2C(=O)O)cc2ccccc21	4 mg/L (≈ 11.1 µM)
N#Cc1ccc(NC(=O)c2cc3cccc(Cl)c3[nH]2)c(C(=O)O)c1	1 mg/L (≈ 2.94 µM)
CCO/N=C1\CCn2c(C(=O)Nc3ccc(C#N)cc3C(=O)O)cc3cccc1c32	1 mg/L (≈ 2.49 µM)
N#Cc1ccc(NC(=O)c2cncc(-c3ccccc3)c2)c(C(=O)O)c1	16 mg/L (≈ 46.6 µM)
O=C(Nc1ccc(Br)cc1C(=O)O)c1c[nH]c(SCc2ccccc2)n1	> 128 mg/L
Cc1nc2cc(NS(=O)(=O)c3cc(C(=O)Nc4ccc(Br)cc4C(=O)O)sc3C)ccc2s1	32 mg/L (≈ 56.5 µM)
CCN(CC)c1ccc(NS(=O)(=O)c2cc(C(=O)Nc3ccc(Br)cc3C(=O)O)cs2)cc1	> 128 mg/L
CC(C)(C)c1cc(C(=O)Nc2ccc(C#N)cc2C(=O)O)no1	1 mg/L (≈ 3.19 µM)
N#Cc1ccc(NC(=O)c2nc3ccccc3[nH]2)c(C(=O)O)c1	4 mg/L (≈ 13.1 µM)
O=C(Nc1ccc(Br)cc1C(=O)O)c1ncc(-c2ccco2)o1	2 mg/L (≈ 5.3 µM)
Cc1sc(C(=O)Nc2ccc(C#N)cc2C(=O)O)cc1S(=O)(=O)N(CC(C)C)CC(C)C	32 mg/L (≈ 67 µM)

The remaining compounds from weak to strong by MIC, led by results:

MIC	Compound
1 mg/L (≈ 2.75 µM)	COc1ccccc1-c1cnc(C(=O)Nc2ccc(C#N)cc2C(=O)O)o1
1 mg/L (≈ 2.3 µM)	O=C(Nc1ccc(I)cc1C(=O)O)c1cc(-c2ccccc2)on1
0.5 mg/L (≈ 1.11 µM)	Cc1ccc(CC(=O)Nc2cccc3cc(C(=O)Nc4ccc(C#N)cc4C(=O)O)[nH]c23)cc1
0.5 mg/L (≈ 0.944 µM)	Cn1c(C(=O)Nc2ccc(C#N)cc2C(=O)O)cc2cccc(OCC(O)COCCOc3ccccc3)c21 (stereo not drawn)
0.5 mg/L (≈ 1.04 µM)	N#Cc1ccc(NC(=O)c2noc3cc(NS(=O)(=O)c4ccc(F)cc4)ccc23)c(C(=O)O)c1
0.5 mg/L (≈ 1.18 µM)	CC(=O)c1ccccc1-c1ccc2onc(C(=O)Nc3ccc(C#N)cc3C(=O)O)c2c1
0.5 mg/L (≈ 0.98 µM)	O=C(O)c1cc(Br)ccc1NC(=O)c1noc2ccc(S(=O)(=O)N3CCOCC3)cc12
0.5 mg/L (≈ 1.01 µM)	CC(C)(C)c1ccc(CC(=O)Nc2cccc3cc(C(=O)Nc4ccc(C#N)cc4C(=O)O)[nH]c23)cc1
0.5 mg/L (≈ 1.14 µM)	CC(=O)Nc1cccc(-c2ccc3onc(C(=O)Nc4ccc(C#N)cc4C(=O)O)c3c2)c1
0.5 mg/L	Cl.Cn1c(C(=O)Nc2ccc(C#N)cc2C(=O)O)cc2cccc(OCC(O)Cn3ccnc3)c21 (stereo not drawn)
0.5 mg/L (≈ 1.22 µM)	Cc1ccccc1-c1ccc2cc(C(=O)Nc3ccc(C#N)cc3C(=O)O)n(C)c2c1
0.5 mg/L (≈ 1.07 µM)	COc1cccc(CC(=O)Nc2cccc3cc(C(=O)Nc4ccc(C#N)cc4C(=O)O)[nH]c23)c1
0.5 mg/L (≈ 1.08 µM)	N#Cc1ccc(NC(=O)c2cc3cccc4c3n2CC/C4=N\OCc2ccccc2)c(C(=O)O)c1
0.5 mg/L (≈ 1.21 µM)	CCCCCCCCSc1cnc(C(=O)Nc2ccc(C#N)cc2C(=O)O)cn1
0.5 mg/L (≈ 1.18 µM)	COCC(O)COc1cccc2cc(C(=O)Nc3ccc(C#N)cc3C(=O)O)n(C)c12 (stereo not drawn)
0.5 mg/L (≈ 1.03 µM)	N#Cc1ccc(NC(=O)c2cc(-c3ccccc3OCCCOc3ccccc3)on2)c(C(=O)O)c1
0.25 mg/L (≈ 0.497 µM)	N#Cc1ccc(NC(=O)c2cc3cccc(NC(=O)c4ccc(Br)cc4)c3[nH]2)c(C(=O)O)c1
0.25 mg/L (≈ 0.62 µM)	CC(Sc1ccc(C(=O)Nc2ccc(C#N)cc2C(=O)O)cn1)c1ccccc1 (stereo not drawn)
0.25 mg/L (≈ 0.507 µM)	Cc1noc(C)c1S(=O)(=O)Nc1cccc2cc(C(=O)Nc3ccc(C#N)cc3C(=O)O)n(C)c12
0.25 mg/L (≈ 0.582 µM)	O=C(Nc1ccc(Br)cc1C(=O)O)c1cc(CCCc2ccccc2)on1
0.25 mg/L (≈ 0.783 µM)	Cn1c(C(=O)Nc2ccc(C#N)cc2C(=O)O)cc2ccccc21

MIC	Compound
0.25 mg/L (≈ 0.534 µM)	CN(C)S(=O)(=O)c1ccc2onc(C(=O)Nc3ccc(Br)cc3C(=O)O)c2c1
0.25 mg/L (≈ 0.637 µM)	CCN(C(C)=O)c1ccc2onc(C(=O)Nc3ccc(C#N)cc3C(=O)O)c2c1
0.25 mg/L (≈ 0.692 µM)	O=C(O)c1cc(Br)ccc1NC(=O)c1noc2ccccc12
0.25 mg/L (≈ 0.655 µM)	N#Cc1ccc(NC(=O)c2cc(CCCC3CCCCC3)on2)c(C(=O)O)c1
0.25 mg/L (≈ 0.529 µM)	N#Cc1ccc(NC(=O)c2cc3cccc(NC(=O)Cc4ccc(Cl)cc4)c3[nH]2)c(C(=O)O)c1
0.25 mg/L (≈ 0.494 µM)	N#Cc1ccc(NC(=O)c2cc3cccc(NC(=O)Cc4cccc(C(F)(F)F)c4)c3[nH]2)c(C(=O)O)c1
0.25 mg/L (≈ 0.503 µM)	N#Cc1ccc(NC(=O)c2cc(-c3ccccc3OCC3COc4ccccc4O3)on2)c(C(=O)O)c1 (stereo not drawn)
0.25 mg/L (≈ 0.496 µM)	N#Cc1ccc(NC(=O)c2cc3cccc(NC(=O)COc4ccc5ccccc5c4)c3[nH]2)c(C(=O)O)c1
0.125 mg/L (≈ 0.196 µM)	CS(=O)(=O)Nc1ccc(-c2cc3onc(C(=O)Nc4ccc(C#N)cc4C(=O)O)c3cc2NS(C)(=O)=O)c(C(F)(F)F)c1
0.125 mg/L (≈ 0.321 µM)	Cn1c(C(=O)Nc2ccc(C#N)cc2C(=O)O)cc2cccc(OC3CCC3)c21
0.125 mg/L (≈ 0.326 µM)	CCCCCCSc1ccc(C(=O)Nc2ccc(C#N)cc2C(=O)O)nc1
0.125 mg/L (≈ 0.326 µM)	N#Cc1ccc(NC(=O)c2noc3ccc(-c4ccccc4)cc23)c(C(=O)O)c1
0.125 mg/L (≈ 0.31 µM)	Cn1c(C(=O)Nc2ccc(C#N)cc2C(=O)O)cc2ccc(OCC3CCC3)cc21
0.125 mg/L (≈ 0.302 µM)	N#Cc1ccc(NC(=O)c2noc3cc(-c4cccc(CO)c4)ccc23)c(C(=O)O)c1
0.125 mg/L (≈ 0.272 µM)	Cn1c(C(=O)Nc2ccc(C#N)cc2C(=O)O)cc2cccc(S(=O)(=O)c3ccccc3)c21
0.125 mg/L (≈ 0.308 µM)	CCCCCOc1cccc2cc(C(=O)Nc3ccc(C#N)cc3C(=O)O)n(C)c12
0.125 mg/L (≈ 0.29 µM)	C[C@@H]1CCCC1Oc1ccccc1-c1cc(C(=O)Nc2ccc(C#N)cc2C(=O)O)no1 (stereo partly drawn)
0.125 mg/L (≈ 0.246 µM)	N#Cc1ccc(NC(=O)c2cc3cccc(NC(=O)Cc4ccc(Cl)c(Cl)c4)c3[nH]2)c(C(=O)O)c1
0.06 mg/L (≈ 0.136 µM)	N#Cc1ccc(NC(=O)c2noc3ccc(S(=O)(=O)N4CCCC4)cc23)c(C(=O)O)c1
0.03 mg/L (≈ 0.0705 µM)	N#Cc1ccc(NC(=O)c2cc(-c3ccccc3Oc3ccccc3)on2)c(C(=O)O)c1
0.03 mg/L (≈ 0.0531 µM)	CC(=O)Nc1ccc(-c2cc3onc(C(=O)Nc4ccc(C#N)cc4C(=O)O)c3cc2NC(C)=O)c(C(F)(F)F)c1
